Laboratory results reported in patent publication US10781214B2, “Kinase inhibitor against wild-type and mutant EGFR” (PRECEDO PHARMACEUTICALS CO., LTD, priority 2015, dated 2020).
Where two headings read alike, the source gives them in different places.

Key:
[1] = system: NCI-H3255 (expressing EGFR L858R mutant gene); experiment: Cancer cell growth, Cell Titer-Glo, 72 h: NCI-H3255; format: cell-based; settings: Homo sapiens
Excerpt: (§1) Compounds of the present invention were further evaluated for their selectivity in inhibiting proliferation of cancer cells by testing effects of the novel kinase inhibitors on proliferation of cancer cells. In the examples the following cells were selected: human non-small cell lung cancer cell NCI-H1975 (expressing EGFR L858R/T790M double-mutant gene), human-derived non-small cell lung cancer cell PC-9 (expressing EGFR delE746_A750 mutant gene), human-derived non-small cell lung cancer cell HCC827 (expressing EGFR delE746_A750 mutant gene), human lung adenocarcinoma cell HCC4006 (expressing EGFR delE746_A750 mutant gene), human non-small cell lung cancer cell NCI-H3255 (expressing EGFR L858R mutant gene), human skin squamous carcinoma cell A431 (expressing wild-type EGFR gene), human non-small cell lung cancer cell A549 (expressing wild-type EGFR gene), human non-small cell lung cancer cell NCI-H460 (expressing wild-type EGFR gene), human non-small cell lung cancer cell NCI-H2122 (expressing wild-type EGFR gene), Chinese hamster ovary (CHO) cell (Cricetulus griseus, hamster, Chinese, ovary), Chinese hamster lung cell (CHL), mouse pro-B cell BaF3. The cells above were all purchased from (USA).
(§2) The cells were incubated for 72 h, and then the number of viable cells was determined via quantitative determination with a microplate reader by using Cell Titer-Glo® (Promega, the USA) Luminescent Cell Viability Assay kit.

[2] = system: HCC827 (expressing EGFR delE746_A750 mutant gene); experiment: Cancer cell growth, Cell Titer-Glo, 72 h: HCC827; format: cell-based; settings: Homo sapiens
Excerpt: as §1, §2

[3] = system: BaF3-TEL-EGFR-L858R (stably expressing EGFR L858R mutant kinase); experiment: Cell growth, Cell Titer-Glo, 72 h: BaF3-TEL-EGFR-L858R; format: cell-based; settings: Mus musculus
Excerpt: (§3) In addition, this example further uses: mouse BaF3-TEL-EGFR (stably expressing wild-type EGFR kinase), mouse BaF3-TEL-EGFR-L858R (stably expressing EGFR L858R mutant kinase), mouse BaF3-TEL-EGFR-T790M (stably expressing EGFR T790M mutant kinase), mouse BaF3-FL-EGFR-DeI19 (stably expressing EGFR delE746_A750 mutant kinase), mouse BaF3-FL-EGFR-T790M-L858R (stably expressing EGFR T790M/L858R mutant kinase), mouse BaF3/P210 (stably expressing bcr/abl˜(P210) mutant kinase), mouse BaF3-TEL-ABL-T315I (stably expressing ABLT315I mutant kinase), mouse BaF3-FLT3-ITD (stably expressing FLT3/ITD mutant kinase), mouse BaF3-TEL-JAK2 (stably expressing JAK2 kinase), mouse BaF3-TEL-JAK3 (stably expressing JAK3 kinase), mouse BaF3-TPR-MET (stably expressing MET kinase), mouse BaF3-TEL-BLK (stably expressing BLK kinase), mouse BaF3-TEL-ABL (stably expressing ABL kinase), mouse BaF3-TEL-BMX (stably expressing BMX kinase), mouse BaF3-TEL-ALK (stably expressing ALK kinase). The above cell lines were all constructed by our laboratory according to the following method: the kinase region sequences of human […], EGFR L858R, EGFR T790M, EGFR delE746_A750, EGFR T790M/L858R, bcr/abl˜(P210), ABL T315I, FLT3/ITD, JAK2, JAK3, MET, BLK, ABL, BMX, ALK were amplified respectively by PCR, inserted respectively into MSCV-Puro vectors harboring N-terminal fragment and/or NPM fragment and/or TPR fragment (Clontech), then the vectors were stably transfected into mouse BaF3 cells by retrovirus methods and growth factor IL-3 was removed, eventually obtaining cell lines that are transferred protein (EGFR, EGFR L858R, EGFR T790M, EGFR delE746_A750, EGFR T790M/L858R, bcr/abl˜(P210), ABL T315I, FLT3/ITD, JAK2, JAK3, MET, BLK, ABL, BMX, ALK)-dependent.
as §2

[4] = system: NCI-H460 (expressing wild-type EGFR gene); experiment: Cancer cell growth, Cell Titer-Glo, 72 h: NCI-H460; format: cell-based; settings: Homo sapiens
Excerpt: as §1, §2

[5] = system: PC-9 (expressing EGFR delE746_A750 mutant gene); experiment: Cancer cell growth, Cell Titer-Glo, 72 h: PC-9; format: cell-based; settings: Homo sapiens
Excerpt: as §1, §2

mouse pro-B cell BaF3 = experiment: Cell growth, Cell Titer-Glo, 72 h: BaF3; format: cell-based
Excerpt: as §1, §2

[6] = system: NCI-H1975 (expressing EGFR L858R/T790M double-mutant gene); experiment: Cancer cell growth, Cell Titer-Glo, 72 h: NCI-H1975; format: cell-based; settings: Homo sapiens
Excerpt: as §1, §2

[7] = system: A431 (expressing wild-type EGFR gene); experiment: Cancer cell growth, Cell Titer-Glo, 72 h: A431; format: cell-based; settings: Homo sapiens
Excerpt: as §1, §2

[8] = system: BaF3-TEL-EGFR (stably expressing wild-type EGFR kinase); experiment: Cell growth, Cell Titer-Glo, 72 h: BaF3-TEL-EGFR; format: cell-based; settings: Mus musculus
Excerpt: as §3, §2

[9] = system: A549 (expressing wild-type EGFR gene); experiment: Cancer cell growth, Cell Titer-Glo, 72 h: A549; format: cell-based; settings: Homo sapiens
Excerpt: as §1, §2

[10] = system: BaF3-TEL-EGFR-T790M (stably expressing EGFR T790M mutant kinase); experiment: Cell growth, Cell Titer-Glo, 72 h: BaF3-TEL-EGFR-T790M; format: cell-based; settings: Mus musculus
Excerpt: as §3, §2

[11] = system: BaF3-FL-EGFR-T790M-L858R (stably expressing EGFR T790M/L858R mutant kinase); experiment: Cell growth, Cell Titer-Glo, 72 h: BaF3-FL-EGFR-T790M-L858R; format: cell-based; settings: Mus musculus, BaF3-FL-EGFR-T790M-L858R cells
Excerpt: as §3, §2

[12] = system: NCI-H2122 (expressing wild-type EGFR gene); experiment: Cancer cell growth, Cell Titer-Glo, 72 h: NCI-H2122; format: cell-based; settings: Homo sapiens, NCI-H2122 cells
Excerpt: as §1, with “The cells above were all purchased from (USA).” left out
as §2

[13] = system: BaF3-FL-EGFR-Del19 (stably expressing EGFR delE746_A750 mutant kinase); experiment: Cell growth, Cell Titer-Glo, 72 h: BaF3-FL-EGFR-Del19; format: cell-based; settings: Mus musculus, BaF3-FL-EGFR-Del19 cells
Excerpt: In addition, this example further uses: mouse BaF3-TEL-EGFR (stably expressing wild-type EGFR kinase), mouse BaF3-TEL-EGFR-L858R (stably expressing EGFR L858R mutant kinase), mouse BaF3-TEL-EGFR-T790M (stably expressing EGFR T790M mutant kinase), mouse BaF3-FL-EGFR-DeI19 (stably expressing EGFR delE746_A750 mutant kinase), mouse BaF3-FL-EGFR-T790M-L858R (stably expressing EGFR T790M/L858R mutant kinase), mouse BaF3/P210 (stably expressing bcr/abl˜(P210) mutant kinase), mouse BaF3-TEL-ABL-T315I (stably expressing ABLT315I mutant kinase), mouse BaF3-FLT3-ITD (stably expressing FLT3/ITD mutant kinase), mouse BaF3-TEL-JAK2 (stably expressing JAK2 kinase), mouse BaF3-TEL-JAK3 (stably expressing JAK3 kinase), mouse BaF3-TPR-MET (stably expressing MET kinase), mouse BaF3-TEL-BLK (stably expressing BLK kinase), mouse BaF3-TEL-ABL (stably expressing ABL kinase), mouse BaF3-TEL-BMX (stably expressing BMX kinase), mouse BaF3-TEL-ALK (stably expressing ALK kinase). […]
as §2

[14] = system: EGFR and signaling proteins in A549, H1975, PC-9, H3255 and HCC827 cells; experiment: Effect on cell signaling pathways (phosphorylation of EGFR and downstream proteins); format: cell-based, human; settings: A549, H1975, PC-9, H3255, HCC827 cells; 4 hour-treatment; 0.01-3 μM
[15] = NCI-H3255 cells, 72 h, read-out: GI50
[16] = HCC827 cells, 72 h, read-out: GI50
[17] = BaF3-TEL-EGFR-L858R cells, read-out: GI50
[18] = PC-9 cells, 72 h, read-out: GI50
[19] = BaF3 cells, 72 h, read-out: GI50
[20] = NCI-H1975 cells, 72 h, read-out: GI50
[21] = A-431, A431 cells, 72 h, read-out: GI50
[22] = BaF3-TEL-EGFR cells, read-out: GI50
[23] = A549 cells, 72 h, read-out: GI50
[24] = BaF3-TEL-EGFR-T790M cells, read-out: GI50
[25] = NCI-H460 cells, 72 h, read-out: GI50

GI50 [1, 15] | GI50 [2, 16] | GI50 [3, 17] | GI50 [5, 18] | GI50 [11] | GI50 (mouse pro-B cell BaF3; [19]) | GI50 [6, 20] | GI50 [7, 21] | GI50 [8, 22] | GI50 [9, 23] | GI50 [10, 24] | SMILES | also measured
 |  |  |  |  |  |  |  |  |  |  | C=CC(=O)Nc1cc(Nc2nccc(-c3cn(C)c4ccccc34)n2)c(OC)cc1N(C)CCN(C)C [AZD9291, reference compound] | GI50 ([1]; NCI-H3255, 72 h): 31 nM; GI50 ([2]; HCC827, 72 h): 4 nM; GI50 [3]: 1.7 nM; GI50 ([4]; NCI-H460, 72 h): 4 µM; GI50 ([5]; PC-9, 72 h): 3 nM; GI50 (mouse pro-B cell BaF3; BaF3, 72 h): 2.7 µM; GI50 ([6]; NCI-H1975, 72 h): […]; GI50 ([7]; A-431, 72 h): […]; GI50 [8]: 1800 nM; GI50 ([9]; A549, 72 h): 5 µM; GI50 [10]: 22 nM
28 nM | 38 nM | < 0.3 nM | 28 nM | < 0.3 nM | 4.1 µM | 53 nM | 17 nM | 13 nM | 3.7 µM |  | C=CC(=O)N1CC[C@@H](n2nc(-c3ccc(OCc4cccc(F)c4)c(Cl)c3)c3c(N)ncnc32)C1 [Compound 4, (R)-1-(3-(4-amino-3-(3-chloro-4-((3-fluorobenzyl)oxy)phenyl)-1H-pyrazolo[3,4-d]pyrimidin-1-yl)pyrrolidin-1-yl)prop-2-en-1-one] | GI50 [12]: 130 nM
> 10000 nM | 3900 nM | 940 nM | 3200 nM | 1700 nM | 9.2 µM | 2700 nM | 9000 nM | 3700 nM | > 10 µM | 1100 nM | CCC(=O)N1CCC[C@@H](n2nc(-c3ccc(OCc4cccc(F)c4)c(Cl)c3)c3c(N)ncnc32)C1 [Compound 51, (R)-1-(3-(4-amino-3-(3-chloro-4-((3-fluorobenzyl)oxy)phenyl)-1H-pyrazolo[3,4-d]pyrimidin-1-yl)piperidin-1-yl)propan-1-one] | GI50 [12]: 3900 nM; GI50 [13]: 1200 nM
250 nM | 97 nM | 6.3 nM | 130 nM |  | 0.97 µM | 440 nM | 1200 nM | 2800 nM | 0.83 µM | 130 nM | C=CC(=O)Nc1cccc(Nc2nc(Nc3ccc(N4CCN(C(C)=O)CC4)cc3OC)ncc2C(F)(F)F)c1 [CO-1686, reference compound] | GI50 [4, 25]: 2.5 µM
23 nM | 39 nM |  | 11 nM |  | 7.4 µM | 80 nM |  | 2800 nM | 4.3 µM | < 0.3 nM | C=CC(=O)N1CCC[C@@H](n2nc(-c3ccc(OCc4ccccc4)c(F)c3)c3c(N)ncnc32)C1 [Compound 12, (R)-1-(3-(4-amino-3-(4-(benzyloxy)-3-fluorophenyl)-1H-pyrazolo[3,4-d]pyrimidin-1-yl)piperidin-1-yl)prop-2-en-1-one] | 
15 nM | 16 nM |  | 2 nM |  | 5.1 µM | 17 nM |  | 2800 nM | 7 µM | < 0.3 nM | C=CC(=O)N1CCC[C@@H](n2nc(-c3ccc(OCc4cccc(F)c4)c(F)c3)c3c(N)ncnc32)C1 [Compound 13, (R)-1-(3-(4-amino-3-(3-fluoro-4-((3-fluorobenzyl)oxy)phenyl)-1H-pyrazolo[3,4-d]pyrimidin-1-yl)piperidin-1-yl)prop-2-en-1-one] | 
27 nM | 36 nM | < 0.3 nM | 35 nM | 6 nM | > 10 µM | < 0.3 nM | > 10000 nM | 5400 nM | > 10 µM | < 0.3 nM | C=CC(=O)N1CCC[C@@H](n2nc(-c3ccc(OCc4cccc(C)n4)c(Cl)c3)c3c(N)ncnc32)C1 [Compound 29, (R)-1-(3-(4-amino-3-(3-chloro-4-((6-methylpyridin-2-yl)methoxy)phenyl)-1H-pyrazolo[3,4-d]pyrimidin-1-yl)piperidin-1-yl)prop-2-en-1-one] | GI50 [4, 25]: 4 µM; phosphorylation of EGFR protein [14]: strongly inhibit; phosphorylation of proteins such as AKT308, eIF4E, P70S6K and ERK downstream of EGFR [14]: significant effect
3700 nM | 1600 nM |  | 1000 nM |  | 1.9 µM | 1200 nM | 2600 nM | 1300 nM |  |  | C=CC(=O)Nc1cc(Cn2nc(-c3ccc(F)c(Cl)c3)c3c(N)ncnc32)ccc1N(C)CCN(C)C [Compound 40] | 
